Patent publication US20200270309A1, “MALEIMIDE GROUP-MODIFIED ANGIOGENESIS INHIBITOR HM-1 AND USE THEREOF” (NANJING ANJI BIOLOGICAL TECHNOLOGY CO., LTD, priority 2017, published 2020)
Read-outs that look alike come from different tables or passages of the source. Peptide text beside a SMILES is read from it. * marks the point of attachment. Hexanoyl(6-maleimido) = O=C1C=CC(=O)N1CCCCCC(=O)*; X22 = O=C1C=CC(=O)N1CCOCCOCCOCCOCCOCCOCCCCCC(=O)*; X24 = O=C1C=CC(=O)N1CCOCCOCCOCCOCCOCCC(=O)*; X44 = O=C1C=CC(=O)N1c1ccc(CCCCCCCC(=O)*)cc1; X10 = O=C1C=CC(=O)N1CCOCCOCCOCCOCCCC(=O)*; X81 = O=C1C=CC(=O)N1c1ccccc1CCCC(=O)*; X32 = O=C1C=CC(=O)N1CCOCCOCCC(=O)*

Assay: Half-lives and pharmacokinetic parameters of polypeptides vs HM-1
Set-up: AUC0-∞: concentration or dose not given beside the values
Details: in vivo

SMILES	AUC(0-inf)	MRT inf	clearance	half-life (T1/2β (half-life))	AUC0-∞	half-life (read-out: T1/2β (half-life) (converted))
C[C@H](NC(=O)CNC(=O)[C@H](CCCNC(=N)N)NC(=O)CCCc1ccccc1N1C(=O)C=CC1=O)C(=O)N[C@@H](CC(=O)O)C(=O)N[C@@H](CCCNC(=N)N)C(=O)N[C@@H](C)C(=O)NCC(=O)NCC(=O)NCC(=O)NCC(=O)N[C@@H](CCCNC(=N)N)C(=O)NCC(=O)N[C@@H](CC(=O)O)C(=O)O [X15] (X81-RGADRAGGGGRGD-OH)	34400 ± 8520 ng·h/mL	61.5 ± 10 h	0.485 mL/min/kg	42.65 ± 0.25 h		
C[C@H](NC(=O)CNC(=O)[C@H](CCCNC(=N)N)NC(=O)CCCCCCCc1ccc(N2C(=O)C=CC2=O)cc1)C(=O)N[C@@H](CC(=O)O)C(=O)N[C@@H](CCCNC(=N)N)C(=O)N[C@@H](C)C(=O)NCC(=O)NCC(=O)NCC(=O)NCC(=O)N[C@@H](CCCNC(=N)N)C(=O)NCC(=O)N[C@@H](CC(=O)O)C(=O)O [X43] (X44-RGADRAGGGGRGD-OH)	26700 ± 7420 ng·h/mL	47.8 ± 9.93 h	0.623 mL/min/kg	33.14 ± 0.31 h		
CC[C@H](C)[C@H](NC(=O)[C@H](Cc1c[nH]cn1)NC(=O)[C@H](CCC(N)=O)NC(=O)[C@H](CCCNC(=N)N)NC(=O)CCCCCN1C(=O)C=CC1=O)C(=O)N[C@@H](Cc1ccccc1)C(=O)N1CCC[C@H]1C(=O)N[C@@H](CO)C(=O)N[C@H](C(=O)N[C@@H](Cc1c[nH]c2ccccc12)C(=O)N[C@@H](Cc1ccccc1)C(=O)N[C@@H](Cc1c[nH]c2ccccc12)C(=O)N[C@@H](Cc1ccc(O)cc1)C(=O)N[C@@H](Cc1ccc(O)cc1)C(=O)N1CCC[C@H]1C(=O)N[C@@H](CC(=O)O)C(=O)N[C@@H](CCCNC(=N)N)C(=O)N[C@@H](CC(C)C)C(=O)N[C@@H](CCCCN)C(=O)N[C@@H](CCSC)C(=O)N[C@@H](CCCNC(=N)N)C(=O)N[C@@H](CCC(=O)O)C(=O)N[C@@H](CC(=O)O)C(=O)O)[C@@H](C)O [P4] ({Hexanoyl(6-maleimido)}-RQHIFPSTWFWYYPDRLKMRED-OH; C-terminus assumed)					0.0391 ± 0.0066 mg/L/h	31.72 ± 0.26 h

Continued, values first:

AUC(0-inf)	MRT inf	clearance	half-life (T1/2β (half-life))	AUC0-∞	half-life (read-out: T1/2β (half-life) (converted))	SMILES
33800 ± 7140 ng·h/mL	60.5 ± 12.3 h	0.493 mL/min/kg	41.92 ± 0.29 h			C[C@H](NC(=O)CNC(=O)[C@H](CCCNC(=N)N)NC(=O)CCCOCCOCCOCCOCCN1C(=O)C=CC1=O)C(=O)N[C@@H](CC(=O)O)C(=O)N[C@@H](CCCNC(=N)N)C(=O)N[C@@H](C)C(=O)NCC(=O)NCC(=O)NCC(=O)NCC(=O)N[C@@H](CCCNC(=N)N)C(=O)NCC(=O)N[C@@H](CC(=O)O)C(=O)O [X72] (X10-RGADRAGGGGRGD-OH)
33800 ± 8180 ng·h/mL	60.5 ± 10.5 h	0.493 mL/min/kg	41.93 ± 0.24 h			C[C@H](NC(=O)CNC(=O)[C@H](CCCNC(=N)N)NC(=O)CCOCCOCCN1C(=O)C=CC1=O)C(=O)N[C@@H](CC(=O)O)C(=O)N[C@@H](CCCNC(=N)N)C(=O)N[C@@H](C)C(=O)NCC(=O)NCC(=O)NCC(=O)NCC(=O)N[C@@H](CCCNC(=N)N)C(=O)NCC(=O)N[C@@H](CC(=O)O)C(=O)O [X57] (X32-RGADRAGGGGRGD-OH)
29800 ± 8510 ng·h/mL	53.4 ± 9.94 h	0.558 mL/min/kg	37.02 ± 0.31 h			C[C@H](NC(=O)CNC(=O)[C@H](CCCNC(=N)N)NC(=O)CCOCCOCCOCCOCCOCCN1C(=O)C=CC1=O)C(=O)N[C@@H](CC(=O)O)C(=O)N[C@@H](CCCNC(=N)N)C(=O)N[C@@H](C)C(=O)NCC(=O)NCC(=O)NCC(=O)NCC(=O)N[C@@H](CCCNC(=N)N)C(=O)NCC(=O)N[C@@H](CC(=O)O)C(=O)O [X78] (X24-RGADRAGGGGRGD-OH)
31800 ± 7130 ng·h/mL	56.9 ± 10.1 h	0.523 mL/min/kg	39.45 ± 0.33 h			C[C@H](NC(=O)CNC(=O)[C@H](CCCNC(=N)N)NC(=O)CCCCCOCCOCCOCCOCCOCCOCCN1C(=O)C=CC1=O)C(=O)N[C@@H](CC(=O)O)C(=O)N[C@@H](CCCNC(=N)N)C(=O)N[C@@H](C)C(=O)NCC(=O)NCC(=O)NCC(=O)NCC(=O)N[C@@H](CCCNC(=N)N)C(=O)NCC(=O)N[C@@H](CC(=O)O)C(=O)O [X88] (X22-RGADRAGGGGRGD-OH)
